Reference: ChEMBL document CHEMBL1150240, “Synthesis and structure-activity relationships of 4-pyridones as potential antimalarials” (J Med Chem, 2008)
Calls of active or inactive are those of the source. The calls are words filed in the database; no cut-off is given here.

How the values were obtained:
[1] = system: Plasmodium yoelii; assay: Antimalarial activity as reduced parasitaemia against Plasmodium yoelii YM in CD1 mice (Mus musculus) after 7 peroral doses over 4 days; type: functional; settings: po, 96 h
[2] = system: Plasmodium falciparum; assay: Antimalarial activity against Plasmodium falciparum T9-96 infected Rhesus positive human erythrocytes by [3H]hypoxanthine uptake; type: functional, organism-based
[3] = system: Plasmodium yoelii; assay: Antimalarial activity as reduced parasitaemia against Plasmodium yoelii YM in CD1 mice (Mus musculus) given a single peroral dose; type: functional; settings: po
[4] = system: Plasmodium falciparum; assay: Antimalarial activity against Plasmodium falciparum 3D7A infected erythrocytes by [3H]hypoxanthine uptake; type: functional, organism-based
[5] = system: Plasmodium falciparum; assay: Antimalarial activity as parasite elimination against Plasmodium falciparum infected Aotus monkeys at 10 mg/kg/day for 7 days; type: functional, organism-based
[6] = system: Plasmodium falciparum; assay: Antimalarial activity against Plasmodium falciparum FCR3-A infected erythrocytes as [3H]hypoxanthine incorporation; type: functional, organism-based

Row | IC50 [2] [nM] | IC50 [4] [nM] | IC50 [6] [nM] | SMILES | ED50 [1] [mg/kg] | ED50 [3] [mg/kg] | Activity [5]
1 | 60 |  |  | Cc1[nH]c(C)c(-c2ccc(Oc3ccc(C(F)(F)F)cc3)cc2)c(=O)c1Cl | 0.6 |  | 
2 | 30 |  |  | Cc1[nH]c(C)c(-c2ccc(Oc3ccc(C(F)(F)F)cc3)cc2)c(=O)c1Br | 0.3 | 1.1 | 
3 | 40 |  |  | Cc1[nH]c(C)c(-c2ccc(Oc3ccc(Cl)cc3)cc2)c(=O)c1Br | 0.3 | 5 | 
4 |  | 1290 |  | Cc1[nH]c(C)c(-c2ccc(Oc3ccc(OC(F)(F)F)cc3)cc2)c(=O)c1CN1CCCC1 |  |  | 
5 | 500 |  |  | Cc1cc(=O)c(-c2ccc(Oc3ccc(C(F)(F)F)cc3)cc2)c(C)[nH]1 | 1.3 |  | 
6 |  | > 1000 |  | Cc1[nH]c(C(F)(F)F)c(Br)c(=O)c1-c1ccc(Oc2ccc(OC(F)(F)F)cc2)cc1 |  |  | 
7 | 30 |  |  | Cc1[nH]c(C)c(-c2ccc(Oc3cccc(C(F)(F)F)c3)cc2)c(=O)c1Br | 0.6 | 3.6 | 
8 | 40 |  |  | Cc1[nH]c(C)c(-c2ccc(Oc3ccc(F)cc3)cc2)c(=O)c1Br | 0.6 |  | 
9 | 30 | 8 |  | Cc1[nH]c(C)c(-c2ccc(Oc3ccc(OC(F)(F)F)cc3)cc2)c(=O)c1Br | 0.3 | 0.2 | Active
10 |  | 200 |  | Cc1[nH]cc(-c2ccc(Oc3ccc(OC(F)(F)F)cc3)cc2)c(=O)c1Br |  |  | 
11 |  | 30 |  | Cc1[nH]c(C)c([N+](=O)[O-])c(=O)c1-c1ccc(Oc2ccc(OC(F)(F)F)cc2)cc1 |  |  | 
12 | 160 | 160 |  | Cc1cc(=O)c(-c2ccc(Oc3ccc(OC(F)(F)F)cc3)cc2)c(C)[nH]1 | > 5 |  | 
13 |  | > 1000 |  | O=c1c(-c2ccc(Oc3ccc(OC(F)(F)F)cc3)cc2)c[nH]c(C(F)(F)F)c1Br |  |  | 
14 |  | 30 |  | Cc1[nH]c(C)c(C(F)(F)F)c(=O)c1-c1ccc(Oc2ccc(OC(F)(F)F)cc2)cc1 |  |  | 
15 |  | 400 |  | Cc1[nH]c(C)c(-c2ccccc2Oc2ccc(OC(F)(F)F)cc2)c(=O)c1Br |  |  | 
16 |  | 110 |  | Cc1[nH]cc(Br)c(=O)c1-c1ccc(Oc2ccc(OC(F)(F)F)cc2)cc1 |  |  | 
17 | 30 | 5 | 1 | Cc1[nH]c(C)c(-c2ccc(Oc3ccc(OC(F)(F)F)cc3)cc2)c(=O)c1Cl | 0.2 | 0.4 | Active
18 |  | 7 |  | Cc1[nH]c(C)c(-c2cccc(Oc3ccc(OC(F)(F)F)cc3)c2)c(=O)c1Br |  |  | 

Second part, the molecule before the results:

Row | SMILES | IC50 [2] [nM] | IC50 [4] [nM] | IC50 [6] [nM] | ED50 [1] [mg/kg] | ED50 [3] [mg/kg] | Activity [5]
19 | Cc1[nH]c(C)c(-c2ccc(Oc3ccc(Cl)cc3)cc2)c(=O)c1Cl | 60 |  |  | 0.6 |  | 
20 | Cc1nc(C)c(Cl)c(O)c1Cl [CLOPIDOL] | 20000 |  |  | 40 |  | 
21 | COc1c(C)[nH]c(C)c(-c2ccc(Oc3cccc(C(F)(F)F)c3)cc2)c1=O |  | 300 |  |  |  | 
22 | Cc1cc(=O)c(-c2ccc(Oc3ccc(Cl)cc3)cc2)c(C)[nH]1 | 250 |  |  | 2.5 |  | 
23 | Cc1cc(=O)c(-c2ccc(Oc3ccc(Cl)cc3)cc2)c(C)n1O | 2200 |  |  | > 1 |  | 
24 | Cc1[nH]c(C)c(-c2ccccc2)c(=O)c1Cl | 11000 |  |  | 22 |  | 
25 | Cc1[nH]c(C)c(-c2ccc(Cl)cc2)c(=O)c1Cl | 2500 |  |  | 20 |  | 
26 | Cc1[nH]c(C)c(-c2ccc(Oc3cccc(Cl)c3)cc2)c(=O)c1Cl | 30 |  |  | > 5 |  | 
27 | Cc1[nH]c(C)c(-c2ccc(Oc3cccc(C(F)(F)F)c3)cc2)c(=O)c1Cl | 30 | 5 | 2.5 | 0.2 | 0.2 | 
28 | Cc1[nH]c(C)c(-c2ccc(-c3ccc(Cl)cc3)cc2)c(=O)c1Cl | 400 |  |  | 0.7 |  | 
29 | CCN(CC)CCCC(C)Nc1ccnc2cc(Cl)ccc12 (centres undefined) [CHLOROQUINE] |  |  |  | 1.8 |  | 
30 | CCCCCCCCc1c(C)[nH]c(C)c(Cl)c1=O | 4000 |  |  | > 60 |  | 
31 | Cc1[nH]c(C)c(-c2ccc(Oc3cccc(Cl)c3)cc2)c(=O)c1Br | 30 |  |  | 3.9 |  | 
32 | O=C1C(O)=C([C@H]2CC[C@H](c3ccc(Cl)cc3)CC2)C(=O)c2ccccc21 [ATOVAQUONE] | 3 |  | 1360 | 0.03 |  | 
33 | Cc1[nH]c(C)c([C@H]2CC[C@H](c3ccc(Cl)cc3)CC2)c(=O)c1Cl | 50 |  |  | 0.6 |  | 
34 | Cc1c(Br)c(=O)c(-c2ccc(Oc3ccc(Cl)cc3)cc2)c(C)n1O | 450 |  |  | 1 |  | 
35 | Cc1[nH]c(C)c(-c2ccc(Oc3ccccc3)cc2)c(=O)c1Br | 150 |  |  | 4 |  | 
